Reference: US20250305981A1, “SWITCHING PEPTIDE AND IMMUNOASSAY USING SAME” (OPTOLANE TECHNOLOGIES INC., priority 2021, published 2025)

Assays:
[1] = Dynamic laser scattering (DLS) of binding antibody bound to ferrocene-labeled switching peptide (FIG. 8A); format: physicochemical; conditions: compared with antibody bound to L2 or H1 peptide
Protocol: FIG. 8A is a result obtained by performing dynamic laser scattering (DLS) to compare the hydrodynamic radius of the switching peptides of the present disclosure. Referring to FIG. 8A, it can be confirmed that DLS was performed using intensity measurement of scattered light under monochromatic laser light, and a hydrodynamic radius of the binding antibody bound to the L1 or H2 peptide was smaller than that of the bound antibody bound to the L2 or H1 peptide.

[2] = biological target: anti-HRP antibody from a rabbit; experiment: One-step immunoassay with fluorescently labeled peptides, varying HRP antigen concentration (FIG. 7); format: binding; conditions: estimated; HRP antigen 0.3 to 100 μM, fluorescence in solution; read-out: Equilibrium dissociation constant
Text: FIG. 7A is a schematic diagram for explaining an immunoassay method using fluorescently labeled peptide compounds of Example 1, and FIGS. 7B and 7C are graphs illustrating the fluorescence intensities in a solution and at a bottom of the microplate depending on a concentration of the antigen measured by the immunoassay method illustrated in FIG. 7A. In this experiment, an anti-HRP antibody from a rabbit immobilized on a microplate was used as the binding antibody and HRP was used as the antigen.
Referring to FIGS. 7A to 7C, as a result of performing immunoassay while varying the concentration of antigen HRP from 0.3 to 100 μM, for the four types of switching peptides (H1, H2, L1, L2), an increase in the fluorescence intensity in the solution was observed depending on the concentration of the antigen (HRP).
Equilibrium dissociation constants of the H1, H2, L1, and L2 peptides were estimated to be 1.65, 3.11, 3.29, and 1.48 μM, and the difference in the dissociation constant for each switching peptide means that each switching peptide has a different detection area for each antigen.

Anti-CRP antibody(r) = experiment: Fluorescence before/after antigen binding, peptide bound to immobilized antibody (Table 2); parameters: species or system rabbit; conditions: fluorescently labeled peptide
Anti-hCG antibody(m) = experiment: as above; parameters: species or system mouse; conditions: fluorescently labeled peptide
Anti-HRP antibody(r) = experiment: as above; parameters: species or system rabbit; conditions: fluorescently labeled peptide
Anti-HBsAg antibody(g) = experiment: as above; parameters: species or system goat; conditions: for fluorescence intensity at the bottom of the plate decreased by: after treatment with antigen HBsAg; for Bottom (B) of microplate After antigen binding, fluorescence intensity / Bottom (B) of microplate Before antigen binding, fluorescence intensity / Bottom (B) of microplate Change (%) / In solution (S) After antigen binding, fluorescence intensity / In solution (S) Before antigen binding, fluorescence intensity: antigen HBsAg, fluorescently labeled peptide
[3] = Diffusion coefficient (Dox) of ferrocene-labeled switching peptides in CV analysis (FIG. 8C); format: physicochemical; conditions: compared with H1 and L2 peptides
Text: FIG. 8C is a graph obtained by measuring a diffusion coefficient (Dox) of the switching peptides of the present disclosure in CV analysis. […] Therefore, L1 and H2 peptides labeled with ferrocene may be optimal probes for electrochemical immunoassay.

[4] = tested on: Fab region of rabbit anti-HRP antibodies; experiment: Papain treatment of immobilized antibody bound to fluorescently labeled switching peptide (FIG. 6B); format: binding; conditions: after vs before papain
Text: In the case of this experiment, after immobilization of the antibodies (rabbit anti-HRP antibodies) on the microplate, binding between the antibody and the switching peptide was induced by treatment with a fluorescently labeled switching peptide, the unbound switching peptide was removed, and then the Fab region was hydrolyzed from the immobilized antibodies by adding papain, which is a protease. Referring to FIG. 6A, the fluorescence at the bottom (B) of the microplate is expected to decrease after the papain reaction because the fluorescently labeled switching peptides are bound to the Fab region of antibodies, and the fluorescence in the solution is expected to increase because the Fab region to which the switching peptide is bound is hydrolyzed and dissolved into the solution. This prediction is proven to be true from the graphs of FIG. 6B.

H2 peptide = experiment: FRET test of specific interaction between L1 and H2 peptides on microplate; format: binding; conditions: FAM-L1 and TAMRA-H2, concentration of L1 peptide varied
Text: (§1) Here, at the ends of the L1 and L2 peptides, a first fluorescent label, FAM (λex=488 nm, λem=532 nm) was modified, and at the ends of the H1 and H2 peptides, a second fluorescent label, TAMRA (λex=532 nm, λem=570 nm) was modified.
Referring to FIG. 4A, the interaction between the L1 and H2 peptides was observed by changing the concentration of the L1 peptide, and the FRET intensity increased with increasing the concentration of the L1 peptide.

L2 peptide = experiment: FRET test of specific interaction between H1 and L2 peptides on microplate; format: binding; conditions: TAMRA-H1 and FAM-L2, concentration of H1 peptide varied
Text: as §1

Chain of H2 peptide (as listed by the source): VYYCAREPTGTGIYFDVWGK

Substance	Kd [2] [µM]	Bottom (B) of microplate After antigen binding, fluorescence intensity (Anti-CRP antibody(r))	Bottom (B) of microplate Before antigen binding, fluorescence intensity (Anti-CRP antibody(r))	Bottom (B) of microplate Change (%) (Anti-CRP antibody(r))	In solution (S) After antigen binding, fluorescence intensity (Anti-CRP antibody(r))	In solution (S) Before antigen binding, fluorescence intensity (Anti-CRP antibody(r))	In solution (S) Change (%) (Anti-CRP antibody(r))	Bottom (B) of microplate After antigen binding, fluorescence intensity (Anti-hCG antibody(m))	Bottom (B) of microplate Before antigen binding, fluorescence intensity (Anti-hCG antibody(m))	Bottom (B) of microplate Change (%) (Anti-hCG antibody(m))	In solution (S) After antigen binding, fluorescence intensity (Anti-hCG antibody(m))	In solution (S) Before antigen binding, fluorescence intensity (Anti-hCG antibody(m))	In solution (S) Change (%) (Anti-hCG antibody(m))	Bottom (B) of microplate After antigen binding, fluorescence intensity (Anti-HRP antibody(r))	Bottom (B) of microplate Before antigen binding, fluorescence intensity (Anti-HRP antibody(r))	Bottom (B) of microplate Change (%) (Anti-HRP antibody(r))	In solution (S) After antigen binding, fluorescence intensity (Anti-HRP antibody(r))	In solution (S) Before antigen binding, fluorescence intensity (Anti-HRP antibody(r))	fluorescence intensity at the bottom of the plate decreased by (Anti-HBsAg antibody(g)) [%]	Bottom (B) of microplate After antigen binding, fluorescence intensity (Anti-HBsAg antibody(g))	also measured
VYYCA REPTG TGIYF DVWGK [H2, homology to FR3 or FR4 region of the heavy chain]	3.11	22205	22205	−39.5	16311	2099	+677%	23320	23320	−88.5	8545	1654	+416%	1806	122230	−85.2	18128	2272	63.9	18773	hydrodynamic radius of the binding antibody bound to the peptide [1]: smaller; Bottom (B) of microplate Before antigen binding, fluorescence intensity (Anti-HBsAg antibody(g)): 29367; Bottom (B) of microplate Change (%) (Anti-HBsAg antibody(g)): −36.1%; In solution (S) After antigen binding, fluorescence intensity (Anti-HBsAg antibody(g)): 9136; In solution (S) Before antigen binding, fluorescence intensity (Anti-HBsAg antibody(g)): 1784; diffusion coefficient (Dox) [3]: relatively higher; decrease of fluorescence intensity at the bottom of the microplate after papain treatment [4]: 58.7%; increase of fluorescence intensity in the solution after papain treatment [4]: 2,356%
VYYCF QGSHV PFTK [L2, homology to FR3 or FR4 region of the light chain]	1.48	11236	20394	−44.9	32187	3274	+883%	3072	33156	−90.7	9402	1692	+456%	3208	12584	−74.5	16135	2315	35.2	9856	Bottom (B) of microplate Before antigen binding, fluorescence intensity (Anti-HBsAg antibody(g)): 28002; Bottom (B) of microplate Change (%) (Anti-HBsAg antibody(g)): −64.8%; In solution (S) After antigen binding, fluorescence intensity (Anti-HBsAg antibody(g)): 15359; In solution (S) Before antigen binding, fluorescence intensity (Anti-HBsAg antibody(g)): 2279; decrease of fluorescence intensity at the bottom of the microplate after papain treatment [4]: 72.5%; increase of fluorescence intensity in the solution after papain treatment [4]: 2,452%
TYLEW YPQKP GQSPK LLIYK [L1, homology to FR2 region of the light chain]	3.29	3456	6719	−48.6	6505	741	+778%	1777	4630	−61.6	3580	1248	+187%	1990	15608	−87.3	12280	2687	48.7	5388	hydrodynamic radius of the binding antibody bound to the peptide [1]: smaller; Bottom (B) of microplate Before antigen binding, fluorescence intensity (Anti-HBsAg antibody(g)): 11062; Bottom (B) of microplate Change (%) (Anti-HBsAg antibody(g)): −51.3%; In solution (S) After antigen binding, fluorescence intensity (Anti-HBsAg antibody(g)): 20501; In solution (S) Before antigen binding, fluorescence intensity (Anti-HBsAg antibody(g)): 2779; diffusion coefficient (Dox) [3]: relatively higher; decrease of fluorescence intensity at the bottom of the microplate after papain treatment [4]: 84.8%; increase of fluorescence intensity in the solution after papain treatment [4]: 1,032%; specific interaction (FRET intensity) (H2 peptide): specific interaction
SYWIH WVKQR PGQGL EWIGE [H1, homology to FR2 region of the heavy chain]	1.65	3595	4912	−26.8	5659	2242	+152%	1940	5646	−65.6	3921	1281	+206%	1451	11840	−87.7	21965	2596	41.1	4618	Bottom (B) of microplate Before antigen binding, fluorescence intensity (Anti-HBsAg antibody(g)): 11225; Bottom (B) of microplate Change (%) (Anti-HBsAg antibody(g)): −58.9%; In solution (S) After antigen binding, fluorescence intensity (Anti-HBsAg antibody(g)): 11453; In solution (S) Before antigen binding, fluorescence intensity (Anti-HBsAg antibody(g)): 2242; specific interaction (FRET intensity) (L2 peptide): specific interaction; decrease of fluorescence intensity at the bottom of the microplate after papain treatment [4]: 84.3%; increase of fluorescence intensity in the solution after papain treatment [4]: 2,184%
